Reference: paper PMC3893112 (Journal of medicinal chemistry, 2013)

Legend:
[1] = biological target: T1, human δ opioid receptor over-expressed in CHO cells (Homo sapiens, UniProt P41143); test: [35S]GTPγS binding assay, agonist mode, δ; type: biochemical; conditions: for Agonist activity at the δ receptor (in words): [35S]GTPγS
[2] = biological target: T1, human δ opioid receptor over-expressed in CHO cells; test: Inhibition of DPDPE-stimulated [35S]GTPγS binding; type: biochemical; conditions: for Antagonist δ, DPDPE Ke: vs DPDPE-stimulated [35S]GTPγS binding
[3] = biological target: human μ opioid receptor over-expressed in CHO cells (Homo sapiens, UniProt P35372); test: [35S]GTPγS binding assay, agonist mode, μ; type: biochemical
human μ opioid receptor over-expressed in CHO cells, sequence (P35372 whole entry): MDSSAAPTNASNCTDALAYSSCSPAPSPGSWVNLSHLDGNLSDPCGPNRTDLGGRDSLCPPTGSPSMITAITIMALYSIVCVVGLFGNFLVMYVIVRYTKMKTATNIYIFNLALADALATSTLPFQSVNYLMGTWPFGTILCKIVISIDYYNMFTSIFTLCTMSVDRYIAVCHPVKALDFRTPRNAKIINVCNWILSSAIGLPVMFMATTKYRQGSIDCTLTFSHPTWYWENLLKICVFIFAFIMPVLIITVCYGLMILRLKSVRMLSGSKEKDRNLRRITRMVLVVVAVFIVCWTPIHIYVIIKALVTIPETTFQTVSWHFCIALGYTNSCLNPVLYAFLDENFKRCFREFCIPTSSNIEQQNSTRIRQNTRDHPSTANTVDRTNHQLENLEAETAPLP

[4] = biological target: T2, human κ opioid receptor over-expressed in CHO cells (Homo sapiens, UniProt P41145); test: [35S]GTPγS binding assay, agonist mode, κ; type: biochemical
T2 sequence (P41145 whole entry): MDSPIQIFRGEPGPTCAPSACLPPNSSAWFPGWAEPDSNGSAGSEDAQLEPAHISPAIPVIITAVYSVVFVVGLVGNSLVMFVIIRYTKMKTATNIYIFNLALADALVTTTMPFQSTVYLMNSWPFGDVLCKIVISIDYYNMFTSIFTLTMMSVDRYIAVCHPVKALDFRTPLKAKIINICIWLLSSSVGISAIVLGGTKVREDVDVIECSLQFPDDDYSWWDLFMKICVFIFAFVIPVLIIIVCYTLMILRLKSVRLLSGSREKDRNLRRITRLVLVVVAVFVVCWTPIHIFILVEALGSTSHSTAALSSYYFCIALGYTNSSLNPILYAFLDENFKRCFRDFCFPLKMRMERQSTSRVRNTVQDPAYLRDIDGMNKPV

[5] = biological target: T2, human κ opioid receptor over-expressed in CHO cells; test: Inhibition of κ agonist-stimulated [35S]GTPγS binding; type: biochemical; conditions: for Antagonist κ, U50,488 Ke: vs κ agonist-stimulated [35S]GTPγS binding
human MOR = human MOR (Homo sapiens, UniProt P35372); test: Competition radioligand binding, [3H]DAMGO; conditions: Ki vs Kd of DAMGO
human MOR, sequence (P35372 whole entry): as the sequence (P35372 whole entry) above

T1 sequence (P41143 whole entry): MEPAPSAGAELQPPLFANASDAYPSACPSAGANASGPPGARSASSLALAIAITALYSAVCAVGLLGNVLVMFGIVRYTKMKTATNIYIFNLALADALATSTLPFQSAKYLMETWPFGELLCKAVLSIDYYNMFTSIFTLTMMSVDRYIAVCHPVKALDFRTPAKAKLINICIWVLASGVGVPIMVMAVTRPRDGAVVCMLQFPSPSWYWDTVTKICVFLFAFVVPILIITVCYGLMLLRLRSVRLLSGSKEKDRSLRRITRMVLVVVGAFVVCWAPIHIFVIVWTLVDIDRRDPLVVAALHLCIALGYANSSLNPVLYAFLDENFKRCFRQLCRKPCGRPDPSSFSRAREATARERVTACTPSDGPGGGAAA

Structure (SMILES)	EC50 [1] [µM]	Agonist activity at the δ receptor (in words) [1]	Kb [2] [nM]	Antagonist δ, DPDPE Ke [2] [nM]	EC50 [3] [µM]	EC50 [4] [µM]	IC50 [3] [nM]	Kb [5] [nM]	Antagonist κ, U50,488 Ke [5] [nM]	Affinity for MOR compared with DAMGO (human MOR)
CCCN[C@H]1C[C@H]2C[C@@](c3cccc(O)c3)(C1)[C@H](C)CN2CCCc1ccccc1.Cl.Cl [Compound 5d, 5-(3-Hydroxyphenyl)-4-methyl-2-(3-phenylprop-1-yl)-7-propylamino-2-azabicyclo[3.3.1]nononane]	> 5	no agonist activity	69.4 ± 16	69.4	–	–	–	–	–	–
C[C@@H]1CN(CCCc2ccccc2)[C@@H]2CCC[C@]1(c1cccc(O)c1)C2.Cl [Compound 4, 3-[(1R,4S,5S)-4-Methyl-2-(3-phenylpropyl)-2-azabicyclo[3.3.1]non-5-yl]phenol]	> 5	–	–	–	> 5	> 5	–	–	–	–
C[C@H]1CN(CCCc2ccccc2)[C@@H]2C[C@@H](N)C[C@@]1(c1cccc(O)c1)C2 [Compound 6, (1S,4R,5R,7S)-7-aminomorphan]	> 5	–	25.2 ± 8	25.2	–	> 5	20.6	21.7 ± 7	21.7	–
CCN(C)[C@H]1C[C@H]2C[C@@](c3cccc(O)c3)(C1)[C@H](C)CN2CCCc1ccccc1 [Compound 5g, 7-(N-Ethylmethylamino)-5-(3-hydroxyphenyl)-4-methyl-2-(3-phenylprop-1-yl)-2 azabicyclo[3.3.1]nononane]	> 5	–	> 5000	–	–	> 5	–	93 ± 29	–	–
C[C@@H]1CN(CCCc2ccccc2)[C@H]2C[C@H](NCC3CC3)C[C@]1(c1cccc(O)c1)C2.Cl.Cl [Compound 5e, 7-(N-Cyclopropylmethylamino)-5-(3-hydroxyphenyl)-4-methyl-2-(3-phenylprop-1-yl)-2-azabicyclo[3.3.1]nononane]	> 5	–	–	–	–	> 5	–	–	–	–
C[C@@H]1CN(CCCc2ccccc2)[C@H]2C[C@H](N)C[C@]1(c1cccc(O)c1)C2.Cl.Cl [Compound 5a, (−)-5-(3-hydroxyphenyl)-4-methyl-2-(3-phenylpropyl)-2-azabicyclo[3.3.1]nonan-7-amine]	–	–	–	–	–	> 5	–	10.1 ± 3	10.1	–
C[C@@H]1CN(CCCc2ccccc2)[C@H]2C[C@H](N(C)CC3CC3)C[C@]1(c1cccc(O)c1)C2.Cl.Cl [Compound 5h, 7-(N-Cyclopropylmethylmethylamino)-5-(3-hydroxyphenyl)-4-methyl-2-(3-phenylprop-1-yl)-2-azabicyclo[3.3.1]nononane]	–	–	–	–	–	–	–	–	–	higher affinity for MOR than DAMGO
C[C@@H]1CN(CCCc2ccccc2)[C@H]2C[C@H](N(C)C)C[C@]1(c1cccc(O)c1)C2.Cl.Cl [Compound 5f, 7-Dimethylamino-5-(3-hydroxyphenyl)-4-methyl-2-(3-phenylprop-1-yl)-2-azabicyclo[3.3.1]nononane]	–	–	–	–	–	> 5	–	176 ± 50	176	higher affinity for MOR than DAMGO
CN[C@H]1C[C@H]2C[C@@](c3cccc(O)c3)(C1)[C@H](C)CN2CCCc1ccccc1.Cl.Cl [Compound 5b, 5-(3-Hydroxyphenyl)-4-methyl-7-methylamino-2-(3-phenylprop-1-yl)-2-azabicyclo[3.3.1]nononane]	–	–	–	–	–	> 5	–	43.8 ± 8	43.8	higher affinity for MOR than DAMGO
CCN[C@H]1C[C@H]2C[C@@](c3cccc(O)c3)(C1)[C@H](C)CN2CCCc1ccccc1.Cl.Cl [Compound 5c, 7-Ethylamino-5-(3-hydroxyphenyl)-4-methyl-2-(3-phenlylprop-1-yl)-2-azabicyclo[3.3.1]nononane]	> 5	complete loss of agonist activity	230 ± 93	230	–	> 5	–	60.8 ± 19	60.8	–
